Source: US6156789A, “Method for treating abnormal cell proliferation in the brain” (Rhone-Poulenc Rorer S.A., priority 1998, dated 2000)
“And” between values parts separate entries of the source, which are not always exact repeats. Equal entries are not always repeated. Where two headings read alike, the source gives them in different places.

Test: Tissue distribution of Compound A in mice with mammary C/16 adenocarcinomas (first method: liver, heart, kidney, lung, spleen, tumor)
Format: in vivo, C3H/HeN female mice
Set-up: key to Percentage of Compound A (of dose) in Liver / Percentage of Compound A (of dose) in Heart / Percentage of Compound A (of dose) in Kidney / Percentage of Compound A (of dose) in Lung / Percentage of Compound A (of dose) in Spleen / Percentage of Compound A (of dose) in Tumor: --: not detected
Conditions: for Kp at 0.5 h: 0.50 h
Description: Mammary C/16 adenocarcinomas were implanted in C3H/HeN female mice. At least 7 days later, 4α,10β-diacetoxy-2α-benzoyloxy-5β,20-epoxy-1β-hydroxy-7β,8β-methylene-9-oxo-19-nor-11-taxen-13α-yl (2R,3S)-3-tert-butoxycarbonylamino-2-hydroxy-3-phenylpropionate ("Compound A") was administered to groups of female mice at doses of 9.5, 15.4, 24.8, 40 or 60.5 mg/kg by intravenous injection under 0.4 or 0.5 ml/injection over 15 seconds. The body weight and date of implantation were recorded for each mouse. Blood and tissue samples were taken 2, 5, 15, 30 and 45 minutes and 1, 4, 14, 24 and 48 hours, after administration. The plasma was separated from the blood samples at 4° C. and frozen immediately. The tissue and tumors were weighed and frozen immediately (-20° C.).
The plasma and tissue samples were then analyzed for the concentration of Compound A. The plasma was assayed by high pressure liquid chromatography with spectrophotometric detection. For the tissue, liver, heart, kidney, lung, spleen and tumor tissue, samples were assayed by a first method, while a second method was used for the brain tissue analyzed. In the first method, 0.2 g of tissue was combined with 2 ml of sodium phosphate buffer 0.1 M (pH:7) and homogenized. The homogenate was centrifuged and 0.5 ml of supernatant was injected into the chromatographic column. In the second method, 10 μl of standard solution was combined with 0.2 g of brain tissue. 2 ml of methanol/5% perchloric acid (50/50) were added and the mixture was homogenized. The homogenate was centrifuged and 100 μl of supernatant was injected into the chromatographic column.

[1] = 0.033 h, 40 μg/kg [sic], mice with tumors, single mice, 40 mg/kg, 1.98 min
[2] = mouse, heart/plasma, iv, 40 mg/kg, mice with tumors, single mice, read-out: Tissue/Plasma Ratio, HEART
[3] = mouse, kidney/plasma, iv, 40 mg/kg, 40 μg/kg [sic], mice with tumors, single mice, read-out: Tissue/Plasma Ratio, KIDNEY

Compound: CC(=O)O[C@H]1C(=O)[C@]23C[C@H]2C[C@H]2OC[C@@]2(OC(C)=O)[C@H]3[C@H](OC(=O)c2ccccc2)[C@]2(O)C[C@H](OC(=O)[C@H](O)[C@@H](NC(=O)OC(C)(C)C)c3ccccc3)C(C)=C1C2(C)C [Compound A, 4α,10β-diacetoxy-2α-benzoyloxy-5β,20-epoxy-1β-hydroxy-7β,8β-methylene-9-oxo-19-nor-11-taxen-13α-yl (2R,3S)-3-tert-butoxycarbonylamino-2-hydroxy-3-phenylpropionate]
- distribution in tissues sampled (40 mg/kg i.v.): quickly distributed in all tissues sampled
- percentage (concentration) in sampled tissue over time (40 mg/kg i.v., first few hours, except tumor and brain tissue): fell off rapidly over the first few hours following drug administration, except in the tumor and brain tissue
- uptake of the drug (40 mg/kg i.v., mice with mammary carcinoma): fast uptake of the drug
- drug present at 0.033 h cleared in one hour (40 mg/kg i.v., rapid phase, except tumor and brain tissue): 70%
- Tissue/Plasma Ratio, KIDNEY [1]: 1.25 and 1.20
- Tissue/Plasma Ratio, LIVER [1]: 0.91
- Tissue/Plasma Ratio, SPLEEN [1]: 0.42 and 0.43 and 0.41
- Percentage of Compound A (of dose) in Heart (0.033 h, 40 mg/kg): 0.46%
- Percentage of Compound A (of dose) in Kidney (0.033 h, 40 mg/kg): 2.06%
- Percentage of Compound A (of dose) in Liver (0.033 h, 40 mg/kg): 9.73%
- Percentage of Compound A (of dose) in Lung (0.033 h, 40 mg/kg): 0.67%
- Percentage of Compound A (of dose) in Spleen (0.033 h, 40 mg/kg): 0.27%
- Percentage of Compound A (of dose) in Tumor (0.033 h, 40 mg/kg): 1.07%
- Percentage of Compound A (of dose) in tissues, Total (0.033 h, 40 mg/kg): 14.45%
- Tissue/Plasma Ratio, LUNG (0.083 h, 40 μg/kg [sic], mice with tumors, single mice, 40 mg/kg, 4.98 min): 0.69
- Percentage of Compound A (of dose) in Heart (1 h, 40 mg/kg): 0.08%
- Percentage of Compound A (of dose) in Kidney (1 h, 40 mg/kg): 0.56%
- Percentage of Compound A (of dose) in Liver (1 h, 40 mg/kg): 2.10%
- Percentage of Compound A (of dose) in Lung (1 h, 40 mg/kg): 0.18%
- Percentage of Compound A (of dose) in Spleen (1 h, 40 mg/kg): 0.10%
- Percentage of Compound A (of dose) in Tumor (1 h, 40 mg/kg): 0.94%
- Percentage of Compound A (of dose) in tissues, Total (1 h, 40 mg/kg): 4.37%
- Percentage of Compound A (of dose) in Heart (4 h, 40 mg/kg): 0.03%
- Percentage of Compound A (of dose) in Kidney (4 h, 40 mg/kg): 0.23%
- Percentage of Compound A (of dose) in Liver (4 h, 40 mg/kg): 0.47%
- Percentage of Compound A (of dose) in Lung (4 h, 40 mg/kg): 0.08%
- Percentage of Compound A (of dose) in Spleen (4 h, 40 mg/kg): 0.05%
- Percentage of Compound A (of dose) in Tumor (4 h, 40 mg/kg): 0.37%
- Percentage of Compound A (of dose) in tissues, Total (4 h, 40 mg/kg): 1.62%
- Percentage of Compound A (of dose) in Heart (24 h, 40 mg/kg): --
- Percentage of Compound A (of dose) in Kidney (24 h, 40 mg/kg): --
- Percentage of Compound A (of dose) in Liver (24 h, 40 mg/kg): --
- Percentage of Compound A (of dose) in Lung (24 h, 40 mg/kg): --
- Percentage of Compound A (of dose) in Spleen (24 h, 40 mg/kg): --
- Percentage of Compound A (of dose) in Tumor (24 h, 40 mg/kg): 0.09%
- Percentage of Compound A (of dose) in tissues, Total (24 h, 40 mg/kg): 0.42%
- Percentage of Compound A (of dose) in Heart (48 h, 40 mg/kg): --
- Percentage of Compound A (of dose) in Kidney (48 h, 40 mg/kg): --
- Percentage of Compound A (of dose) in Liver (48 h, 40 mg/kg): --
- Percentage of Compound A (of dose) in Lung (48 h, 40 mg/kg): --
- Percentage of Compound A (of dose) in Spleen (48 h, 40 mg/kg): --
- Percentage of Compound A (of dose) in Tumor (48 h, 40 mg/kg): --
- Percentage of Compound A (of dose) in tissues, Total (48 h, 40 mg/kg): 0.19%
- AUC 0-4 Hours, Heart (dose = 40 mg/kg): 24.8 µg·h/g
- AUC 0-4 Hours, Kidney (dose = 40 mg/kg): 74.4 µg·h/g
- AUC 0-4 Hours, Liver (dose = 40 mg/kg): 70.8 µg·h/g
- AUC 0-4 Hours, Lung (dose = 40 mg/kg): 34.3 µg·h/g
- AUC 0-4 Hours, Spleen (dose = 40 mg/kg): 34.6 µg·h/g
- AUC 0-4 Hours, Tumor (dose = 40 mg/kg): 35.6 µg·h/g
- AUC 0 to Infinity, Heart (dose = 40 mg/kg): 28 µg·h/g
- AUC 0 to Infinity, Kidney (dose = 40 mg/kg): 121 µg·h/g
- AUC 0 to Infinity, Liver (dose = 40 mg/kg): 93 µg·h/g
- AUC 0 to Infinity, Lung (dose = 40 mg/kg): 52 µg·h/g
- AUC 0 to Infinity, Spleen (dose = 40 mg/kg): 80 µg·h/g
- AUC 0 to Infinity, Tumor (dose = 40 mg/kg): 107 µg·h/g
- half-life (mouse, heart, iv, 40 mg/kg, read-out: t 1/2, Heart (converted)): 96 min
- Tmax (mouse, heart, iv, 40 mg/kg i.v., read-out: time of maximum concentration, heart): 1.98 min
- Kp at 0.033 h (mouse, heart/plasma, iv, 40 mg/kg, 0.033 h, mice with tumors, single mice, read-out: Tissue/Plasma Ratio, HEART): 0.45
- Kp at 0.083 h (mouse, heart/plasma, iv, 40 mg/kg, 0.083 h, mice with tumors, single mice, read-out: Tissue/Plasma Ratio, HEART): 0.98
- Kp at 0.25 h [2]: 0.65
- Kp at 0.5 h [2]: 0.88
- Kp at 0.75 h [2]: 0.87
- Kp at 1 h (mouse, heart/plasma, iv, 40 mg/kg, 1 h, mice with tumors, single mice, read-out: Tissue/Plasma Ratio, HEART): 0.77
- half-life (mouse, kidney, iv, 40 mg/kg, 40 mg/kg i.v., read-out: half-life of the distribution phase, kidney (converted)): 3 min
- half-life (mouse, kidney, iv, 40 mg/kg, read-out: t 1/2, Kidney (converted)): 162 min
- Tmax (mouse, kidney, iv, 40 mg/kg i.v., read-out: time of maximum concentration, kidney): 1.98 min
- Kp at 0.033 h (mouse, kidney/plasma, iv, 40 mg/kg, 0.033 h, 40 μg/kg [sic], mice with tumors, single mice, read-out: Tissue/Plasma Ratio, KIDNEY): 1.7
- Kp at 0.083 h (mouse, kidney/plasma, iv, 40 mg/kg, 0.083 h, 40 μg/kg [sic], mice with tumors, single mice, read-out: Tissue/Plasma Ratio, KIDNEY): 2.4
- Kp at 0.25 h [3]: 1.35
- Kp at 0.5 h [3]: 1.88
- Kp at 0.75 h [3]: 2.44
